“And” between values parts separate entries of the source, which are not always exact repeats. Equal entries are not always repeated. Inconclusive results and toxic doses are left out. How the source made its calls: active means survival T/C of 150% or more; inactive means T/C below 125% in these data.
System: P388 leukemia ip, CD2F1 mice, survival T/C
Assay: NCI In Vivo Anticancer Drug Screen. Data for tumor model P388 Leukemia (intraperitoneal) in CD2F1 (CDF1) mice
Settings: endpoint: median survival time, higher = longer survival
Method in brief: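 Mice carrying the transplanted tumor received test compound or vehicle. Survival was recorded in each group, and the value is the treated-group measurement divided by that of the vehicle-treated control group.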

Measured: T/C

CC1OC(=O)C(C(C)C)NC(=O)C(C(C)C)OC(=O)C(C(C)C)NC(=O)C(C)OC(=O)C(C(C)C)NC(=O)C(C(C)C)OC(=O)C(C(C)C)NC(=O)C(C)OC(=O)C(C(C)C)NC(=O)C(C(C)C)OC(=O)C(C(C)C)NC1=O (stereo not drawn)
active: dose: 0.25 mg/kg/injection, schedule: Q01DX009 (ip), vehicle: other 154 % of control | dose: 0.47 mg/kg/injection, schedule: Q01DX009 (ip), vehicle: Klucel (hydroxypropylcellulose) (HPC) 155 % of control | dose: 1.0 mg/kg/injection, schedule: Q01DX005 (ip), vehicle: Klucel (hydroxypropylcellulose) (HPC) 155 % of control | dose: 1.88 mg/kg/injection, schedule: Q01DX009 (ip), vehicle: Klucel (hydroxypropylcellulose) (HPC) 161 % of control | dose: 2.0 mg/kg/injection, schedule: Q01DX005 (ip), vehicle: Klucel (hydroxypropylcellulose) (HPC) 165 % of control | dose: 4.0 mg/kg/injection, schedule: Q01DX005 (ip), vehicle: Klucel (hydroxypropylcellulose) (HPC) 160 % of control and 162 % of control | dose: 5.0 mg/kg/injection, schedule: Q01DX009 (ip), vehicle: Klucel (hydroxypropylcellulose) (HPC) 162 % of control | dose: 8.0 mg/kg/injection, schedule: Q01DX005 (ip), vehicle: Klucel (hydroxypropylcellulose) (HPC) 159 % of control and 162 % of control | dose: 10.0 mg/kg/injection, schedule: Q04DX003 (ip), vehicle: saline with Tween-80 151 % of control and 167 % of control | dose: 16.0 mg/kg/injection, schedule: Q01DX005 (ip), vehicle: Klucel (hydroxypropylcellulose) (HPC) 163 % of control | dose: 100.0 micrograms/kg/injection, schedule: Q03HX020 (ip), vehicle: other 161 % of control | dose: 200.0 micrograms/kg/injection, schedule: Q12HX010 (ip), vehicle: other 153 % of control
inactive: dose: 0.03 mg/kg/injection, schedule: Q01DX009 (ip), vehicle: other 113 % of control | dose: 0.1 mg/kg/injection, schedule: Q01DX005 (ip), vehicle: DMSO 110 % of control | dose: 0.1 mg/kg/injection, schedule: Q01DX005 (ip), vehicle: other 108 % of control | dose: 0.12 mg/kg/injection, schedule: Q01DX009 (oral), vehicle: other 102 % of control | dose: 0.2 mg/kg/injection, schedule: Q01DX005 (ip), vehicle: DMSO 116 % of control | dose: 0.2 mg/kg/injection, schedule: Q01DX005 (ip), vehicle: other 110 % of control | dose: 0.23 mg/kg/injection, schedule: Q01DX009 (oral), vehicle: other 96 % of control | dose: 0.4 mg/kg/injection, schedule: Q01DX005 (ip), vehicle: other 120 % of control | dose: 0.47 mg/kg/injection, schedule: Q01DX009 (oral), vehicle: other 98 % of control | dose: 0.5 mg/kg/injection, schedule: Q01DX009 (ip), vehicle: Klucel (hydroxypropylcellulose) (HPC) 116 % of control | dose: 0.5 mg/kg/injection, schedule: Q01DX009 (ip), vehicle: other 100 % of control | dose: 0.62 mg/kg/injection, schedule: Q01DX009 (ip), vehicle: saline 111 % of control and 97 % of control | dose: 0.94 mg/kg/injection, schedule: Q01DX009 (oral), vehicle: Klucel (hydroxypropylcellulose) (HPC) 103 % of control | dose: 0.94 mg/kg/injection, schedule: Q01DX009 (oral), vehicle: other 93 % of control | dose: 1.25 mg/kg/injection, schedule: Q01DX009 (ip), vehicle: saline 94 % of control | dose: 1.88 mg/kg/injection, schedule: Q01DX009 (oral), vehicle: Klucel (hydroxypropylcellulose) (HPC) 108 % of control | dose: 2.5 mg/kg/injection, schedule: Q01DX009 (ip), vehicle: saline 87 % of control and 94 % of control | dose: 3.75 mg/kg/injection, schedule: Q01DX009 (oral), vehicle: Klucel (hydroxypropylcellulose) (HPC) 106 % of control | dose: 5.0 mg/kg/injection, schedule: Q01DX009 (ip), vehicle: saline with Tween-80 106 % of control | dose: 5.0 mg/kg/injection, schedule: Q01DX009 (ip), vehicle: saline 87 % of control and 93 % of control | dose: 7.5 mg/kg/injection, schedule: Q01DX009 (ip), vehicle: Klucel (hydroxypropylcellulose) (HPC) 88 % of control | dose: 7.5 mg/kg/injection, schedule: Q01DX009 (oral), vehicle: Klucel (hydroxypropylcellulose) (HPC) 88 % of control | dose: 10.0 mg/kg/injection, schedule: Q01DX009 (ip), vehicle: Klucel (hydroxypropylcellulose) (HPC) 97 % of control | dose: 20.0 mg/kg/injection, schedule: Q04DX003 (ip), vehicle: saline with Tween-80 108 % of control | dose: 6.25 micrograms/kg/injection, schedule: Q03HX008 (ip), vehicle: other 101 % of control | dose: 6.25 micrograms/kg/injection, schedule: Q03HX020 (ip), vehicle: other 118 % of control | dose: 6.25 micrograms/kg/injection, schedule: Q12HX004 (iv), vehicle: other 101 % of control | dose: 6.25 micrograms/kg/injection, schedule: Q12HX010 (ip), vehicle: other 111 % of control | dose: 6.25 micrograms/kg/injection, schedule: Q12HX010 (iv), vehicle: other 102 % of control | dose: 12.5 micrograms/kg/injection, schedule: Q01DX001 (iv), vehicle: other 97 % of control | dose: 12.5 micrograms/kg/injection, schedule: Q01DX005 (ip), vehicle: other 103 % of control and 107 % of control | dose: 12.5 micrograms/kg/injection, schedule: Q01DX005 (iv), vehicle: other 99 % of control and 100 % of control | dose: 12.5 micrograms/kg/injection, schedule: Q03HX008 (ip), vehicle: other 118 % of control | dose: 12.5 micrograms/kg/injection, schedule: Q03HX020 (ip), vehicle: other 119 % of control | dose: 12.5 micrograms/kg/injection, schedule: Q04DX002 (iv), vehicle: other 101 % of control | dose: 12.5 micrograms/kg/injection, schedule: Q12HX004 (ip), vehicle: other 110 % of control | dose: 12.5 micrograms/kg/injection, schedule: Q12HX004 (iv), vehicle: other 103 % of control | dose: 12.5 micrograms/kg/injection, schedule: Q12HX010 (ip), vehicle: other 123 % of control | dose: 12.5 micrograms/kg/injection, schedule: Q12HX010 (iv), vehicle: other 103 % of control | dose: 25.0 micrograms/kg/injection, schedule: Q01DX001 (ip), vehicle: other 98 % of control | dose: 25.0 micrograms/kg/injection, schedule: Q01DX001 (iv), vehicle: other 103 % of control | dose: 25.0 micrograms/kg/injection, schedule: Q01DX005 (ip), vehicle: other 115 % of control and 116 % of control | dose: 25.0 micrograms/kg/injection, schedule: Q01DX005 (iv), vehicle: other 99 % of control and 100 % of control | dose: 25.0 micrograms/kg/injection, schedule: Q03HX008 (ip), vehicle: other 113 % of control | dose: 25.0 micrograms/kg/injection, schedule: Q03HX020 (ip), vehicle: other 124 % of control | dose: 25.0 micrograms/kg/injection, schedule: Q04DX002 (ip), vehicle: other 102 % of control | dose: 25.0 micrograms/kg/injection, schedule: Q04DX002 (iv), vehicle: other 101 % of control | dose: 25.0 micrograms/kg/injection, schedule: Q12HX004 (ip), vehicle: other 100 % of control | dose: 25.0 micrograms/kg/injection, schedule: Q12HX004 (iv), vehicle: other 98 % of control | dose: 25.0 micrograms/kg/injection, schedule: Q12HX010 (ip), vehicle: other 121 % of control | dose: 25.0 micrograms/kg/injection, schedule: Q12HX010 (iv), vehicle: other 103 % of control | dose: 50.0 micrograms/kg/injection, schedule: Q01DX001 (ip), vehicle: other 100 % of control | dose: 50.0 micrograms/kg/injection, schedule: Q01DX001 (iv), vehicle: other 101 % of control | dose: 50.0 micrograms/kg/injection, schedule: Q01DX005 (ip), vehicle: other 118 % of control and 120 % of control | dose: 50.0 micrograms/kg/injection, schedule: Q01DX005 (iv), vehicle: other 98 % of control and 103 % of control | dose: 50.0 micrograms/kg/injection, schedule: Q04DX002 (ip), vehicle: other 109 % of control | dose: 50.0 micrograms/kg/injection, schedule: Q04DX002 (iv), vehicle: other 100 % of control | dose: 50.0 micrograms/kg/injection, schedule: Q12HX004 (ip), vehicle: other 113 % of control | dose: 50.0 micrograms/kg/injection, schedule: Q12HX004 (iv), vehicle: other 104 % of control | dose: 50.0 micrograms/kg/injection, schedule: Q12HX010 (iv), vehicle: other 101 % of control | dose: 100.0 micrograms/kg/injection, schedule: Q01DX001 (ip), vehicle: other 100 % of control | dose: 100.0 micrograms/kg/injection, schedule: Q01DX001 (iv), vehicle: other 100 % of control | dose: 100.0 micrograms/kg/injection, schedule: Q01DX005 (iv), vehicle: other 101 % of control | dose: 100.0 micrograms/kg/injection, schedule: Q04DX002 (ip), vehicle: other 110 % of control | dose: 100.0 micrograms/kg/injection, schedule: Q04DX002 (iv), vehicle: other 101 % of control | dose: 100.0 micrograms/kg/injection, schedule: Q12HX004 (ip), vehicle: other 124 % of control | dose: 100.0 micrograms/kg/injection, schedule: Q12HX010 (iv), vehicle: other 102 % of control | dose: 200.0 micrograms/kg/injection, schedule: Q01DX001 (ip), vehicle: other 103 % of control | dose: 200.0 micrograms/kg/injection, schedule: Q03HX008 (ip), vehicle: other 120 % of control | dose: 400.0 micrograms/kg/injection, schedule: Q01DX001 (ip), vehicle: other 111 % of control | dose: 800.0 micrograms/kg/injection, schedule: Q01DX001 (ip), vehicle: other 114 % of control
